Measured values reported in article PMC6337391 (Molecules, 2019).

How the values were obtained:
[1] = Inhibition of linoleic acid lipid peroxidation (AAPH)
From the text: The water soluble 2,2′-azobis(2-amidinopropane) hydrochloride (AAPH) generates in vitro free radicals through spontaneous thermal decomposition. […] Overall, chalcones a, b, and c present anti-lipid peroxidation activity. […] The inhibiting activities for the rest b chalcones ranged from 15–44%. The intermediate ethers are moderate inhibitors. […] This might be correlated with the presence of the double C=C–COCH3 group. […] Both have a long ether chain in their structure.
In an aqueous solution spectrophotometrically at 234 nm the production of conjugated diene hydro peroxide by oxidation of sodium linoleate was monitored and recorded according to our previous published experimental conditions, using 10 µL of the 16 mM sodium linoleate solution added to the UV cuvette containing 930 μL of 0.05 M phosphate buffer, pH 7.4 pre-thermostated at 37 °C, under air by the addition of 50 μL of 40 mM AAPH solution, which was used as a free radical initiator. Ten microliters (10 μL) of the appropriate solutions of the tested compounds were added in the mixture, whereas same level of DMSO was used as a blank for the measurement of lipid oxidation. The rate of oxidation at 37 °C was monitored by recording the increase in absorption at 234 nm caused by conjugated diene hydro peroxides.

[2] = Lipophilicity as RM values by RP-TLC; format: physicochemical; design: key: RM = log[(1/Rf) − 1]; details: methanol/water 70/30, SD < 10%
From the text: It is well-documented and discussed in the literature that lipophilicity is a very significant physicochemical property which may critically affect distribution, bioavailability, metabolic activity and elimination, all the useful characteristics for the kinetics of biologically active compounds. Thus, we attempted to determine experimentally the lipophilicity of the synthesized compounds from the RPTLC method as RM values. The method is considered to be a reliable, fast and convenient method for expressing lipophilicity. Moreover, many calculated methods were used in order to predict the logP value.
Reversed phase TLC (RP-TLC) was performed on silica gel plates impregnated with 5% (v/v) liquid paraffin in light petroleum ether. The mobile phase was a methanol/water mixture (70/30, v/v). The plates were developed in closed chromatography tanks saturated with the mobile phase at 24 °C. Spots were detected under UV light. Five individual measurements of Rf values were recorded and used for the determination of RM using the equation RM = log [(1/Rf) − 1]. (Table 3).

[3] = ABTS•+ decolorization assay
Description: The decolorization assay is used to evaluate the antioxidant activity. The ABTS^•+ cationic radical is derived from the direct oxidation of ABTS by potassium persulfate. No involvement of an intermediary radical is observed. The addition of electron-donating antioxidants reduce ABTS^•+.
Stock solutions of the tested compounds in DMSO (10 mM) were diluted. […] aliquots of each sample were added into the ABTS·^+ solution and the absorbance was recorded at room temperature. Trolox was used as a standard.

[4] = test system: L929 mouse fibroblasts cells; test: Cytotoxicity, propidium iodide fluorescence method; format: cell-based; details: 24-h incubation
Description: The cytotoxicity of the synthesized derivatives against L929 mouse fibroblasts cells was determined using the propidium iodide (PI) fluorescence method in the presence of different concentrations (1–100 μM) of these compounds. The results are presented in Table 4 in the form of the % cell survival values as PI% for the examined compounds. […] Chalcones c7, c8, c11, and c12 follow.
L929 mouse fibroblasts cells were cultured in EMEM supplemented with 10% horse serum, 2 mM L-glutamine, 1 mM sodium pyruvate, 0.1 mM nonessential amino acids, 1.5 g/L sodium bicarbonate, and 100 μg/mL penicillin–streptomycin at 37 °C in a humidified atmosphere with 5% CO2. L929 cells were plated into 24-well plates at a density […] and allowed to attach and grow for 24 h. The supernatant in each well then replaced with medium containing various concentrations (1, 10, 20, 50 and 100 μM) of compounds a5–12, c5–12, di, and dii–dvi, which presented the more interesting results in the in vitro experiments. After 24-h incubation, the supernatant was removed and the cells were washed with PBS. The cells were detached with 0.25% trypsin, transferred to FACS tubes, and then centrifuged (1600 rpm for 5 min) and the pellet washed with PBS. After washing, the cells in the pellet were incubated with 5 μL propidium iodide (PI) solution (1 mg/mL) for 1 min. The PI fluorescence (cell death) was determined with flow cytometry, FACS Calibur, Coulter Epics XL-MCL (Beckman, Inc., Mount Holly, NJ, USA). The analysis of flow cytometry data was performed with the WinMDI analysis program (Table 4).

soybean lipoxygenase = biological target: T1, soybean lipoxygenase (Glycine max, UniProt P08170); test: biochemical; format: biochemical; details: soybean LOX; for IC50: read-out: LOX IC50
T1 sequence (P08170 1-839): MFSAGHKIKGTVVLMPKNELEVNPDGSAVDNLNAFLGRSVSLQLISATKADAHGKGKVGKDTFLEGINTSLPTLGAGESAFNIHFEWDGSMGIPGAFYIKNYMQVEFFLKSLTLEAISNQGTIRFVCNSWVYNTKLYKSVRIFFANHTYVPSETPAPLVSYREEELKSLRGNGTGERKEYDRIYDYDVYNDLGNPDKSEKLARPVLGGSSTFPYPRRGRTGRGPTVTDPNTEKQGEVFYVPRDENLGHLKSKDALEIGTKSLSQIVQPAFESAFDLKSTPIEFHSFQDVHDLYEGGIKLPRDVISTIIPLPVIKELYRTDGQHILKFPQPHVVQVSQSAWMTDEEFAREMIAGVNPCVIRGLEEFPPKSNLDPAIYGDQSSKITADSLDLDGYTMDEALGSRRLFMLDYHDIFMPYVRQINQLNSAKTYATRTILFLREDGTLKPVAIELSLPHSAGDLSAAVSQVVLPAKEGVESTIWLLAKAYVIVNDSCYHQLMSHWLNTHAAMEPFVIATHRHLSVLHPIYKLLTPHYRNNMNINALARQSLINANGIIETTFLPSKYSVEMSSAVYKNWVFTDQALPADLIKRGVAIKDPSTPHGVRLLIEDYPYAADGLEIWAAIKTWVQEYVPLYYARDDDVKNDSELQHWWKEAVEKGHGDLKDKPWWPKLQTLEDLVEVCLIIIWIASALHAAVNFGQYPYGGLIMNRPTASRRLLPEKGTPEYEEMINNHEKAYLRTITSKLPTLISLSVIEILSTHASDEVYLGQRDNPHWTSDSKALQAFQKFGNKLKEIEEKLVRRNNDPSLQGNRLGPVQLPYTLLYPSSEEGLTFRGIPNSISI
From the text: In our experiments we used soybean lipoxygenase. Designing agents to modulate activities of the variety of so closely homologous enzymes, such as different LOXs, require an intimate knowledge of their 3D structures, as well as information about metabolism of the potential xenobiotics. […] Due to lack of sufficiently-purified human enzymes most of the research has been done on soybean LOX [52, 53]. Although this enzyme is not identical to the mammalian one, it seems that there is a sufficient qualitative correlation between values for enzyme inhibition with the two enzymes.
In vitro study was evaluated as reported previously. The tested compounds as stock solutions were dissolved in DMSO. Ten microliters (10 μL) were incubated at room temperature with sodium linoleate ([…]) and 0.2 mL of enzyme solution (1/9 × 10^−4 w/v in saline) in buffer pH 9 (tris) at room temperature (final volume 1 mL). […] Several concentrations were used for the determination of IC50 values.

[5] = Reducing activity with the stable radical DPPH
Description: The chalcones were studied for the antioxidant activity (reducing activity RA%) by the use of the stable free radical 2,2-diphenyl-1-picrylhydrazyl radical (DPPH) at concentrations 0.05 mM after 20 and 60 min (Table 2). In this procedure, the dominant chemical reaction involved is the reduction of the DPPH radical by single electron transfer from the antioxidant. […] For the sake of comparison, we measured the RA% values for the intermediate double ethers d which were included in the Table 2.
To a solution of DPPH (final concentration 0.05 mM) in absolute ethanol an equal volume of the compounds solution in DMSO (stock solution 10 mM) dissolved in ethanol was added. Absolute ethanol was used as a control. The concentrations of the solutions of the compounds were 0.05 and 0.1 mM. The absorbance was recorded at 517 nm at room temperature after 20 and 60 min [29] (Table 2).

SMILES | AAPH% @ 100 μM (anti-lipid peroxidation) [1] | RM [2] | ABTS•+ Inhb. % @ 100 μM [3] | 1 μM Average (% pi) ± σ [4] | 10 μM Average (% pi) ± σ [4] | 20 μM Average (% pi) ± σ [4] | 50 μM Average (% pi) ± σ [4] | 100 μM Average (% pi) ± σ [4] | % LOX Inhb. @ 100 μM (soybean lipoxygenase) | RA% 100 μM 20 min [5] | RA% 100 μM 60 min [5] | IC50 (soybean lipoxygenase)
CC(=O)c1ccc(OCCCCCCOc2ccc(C(C)=O)cc2)cc1 [dv, 1,1′-((hexane-1,6-diylbis(oxy))bis(4,1-phenylene))diethanone] | 18% | −0.53 | No | 4.47 ± 0.59% | 6.83 ± 2.46% | 8.05 ± 3.58% | 9.69 ± 0.57% | 9.69 ± 0.57% | 7% |  |  | 
CN(C)c1ccc(/C=C/C=C/C(=O)c2ccc(OCCCCCCCCOc3ccc(C(=O)/C=C/C=C/c4ccc(N(C)C)cc4)cc3)cc2)cc1 [evii, (2E,2′E,4E,4′E)-1,1′-((octane-1,8-diylbis(oxy))bis(4,1-phenylene))bis(5-(4-(dimethylamino)phenyl)penta-2,4-dien-1-one)] | 6% |  | 88% |  |  |  |  |  | 12% | No | no | 
O=C(/C=C/c1cccc(Oc2ccccc2)c1)c1ccccc1O [b2, (E)-1-(2-hydroxyphenyl)-3-(3-phenoxyphenyl) prop-2-en-1-one] | 44% | 0.04 | No |  |  |  |  |  | 44% | 45% | 15% | 
CN(C)c1ccc(/C=C/C=C/C(=O)c2ccc(OCCCCCCOc3ccc(C(=O)/C=C/C=C/c4ccc(N(C)C)cc4)cc3)cc2)cc1 [ev, (2E,2′E,4E,4′E)-1,1′-((hexane-1,6-diylbis(oxy))bis(4,1-phenylene))bis(5-(4-(dimethylamino)phenyl)penta-2,4-dien-1-one)] | 14% |  | 25% |  |  |  |  |  | 7% | No | no | 
CC(Cc1ccc(O)c(O)c1)C(C)Cc1ccc(O)c(O)c1 (stereo not shown) [NDGA, Nordihydroguaiaretic acid, reference compound] |  |  |  |  |  |  |  |  |  | 81% | 83% | 
CC(=O)c1ccc(OCCCCCCCCOc2ccc(C(C)=O)cc2)cc1 [dvii, 1,1′-((octane-1,8-diylbis(oxy))bis-(4,1-phenylene))diethanone] | 27% | −0.36 | No |  |  |  |  |  | 5% |  |  | 
O=C(/C=C/c1ccc(OCc2ccc(Br)cc2)cc1)c1ccccc1O [b1, (E)-3-(4-((4-bromobenzyl)oxy)phenyl)-1-(2-hydroxyphenyl) prop-2-en-1-one] | 89% | −0.91 | 40% |  |  |  |  |  | 89% | 46% | 0% | 56 µM
CC(=O)c1ccc(OCCCCCOc2ccc(C(C)=O)cc2)cc1 [div, 1,1′-((pentane-1,5-diylbis(oxy))bis(4,1-phenylene))diethanone] | 30% | 0.23 | No | 4.89 ± 0.51% | 8.56 ± 3.97% | 11.86 ± 2.98% | 17.05 ± 1.46% | 17.05 ±1.46% | 17% |  |  | 
CC(=O)c1ccc(OCCCCOc2ccc(C(C)=O)cc2)cc1 [diii, 1,1′-((butane-1,4-diylbis(oxy))bis(4,1-phenylene))diethanone] | 29% | −0.37 | No | 14.06 ± 1.36% | 20 ± 3.12% | 20.76 ± 3.51% | 32.14 ± 6.99% | 32.14 ± 6.99% | 41% |  |  | 
CN(C)c1ccc(/C=C/C=C/C(=O)c2ccccc2O)cc1 [b3, (2E,4E)-5-(4-(dimethylamino)phenyl)-1-(2-hydroxyphenyl)penta-2,4-dien-1-one] | 100% | −0.66 | 96% |  |  |  |  |  | 100% | 72% | 15% | 57 µM
Nc1c2c(nc3ccccc13)CCCC2 [Tacrine, reference compound] |  |  | 88% |  |  |  |  |  |  |  |  | 
